Laboratory results as given in US10869875B2, “Oxysterols and Hedgehog signaling” (MAX BIOPHARMA, INC., priority 2015, dated 2020).

What was measured:
[1] = system: Hedgehog target gene Gli1; assay: Expression of Hedgehog target gene Gli1 in NIH3T3 cells (quantitative RT-PCR); format: cell-based; conditions: for gene expression of the Hedgehog target gene Gli1: in CM, 5 μM and 10 μM; for gene expression of the Hedgehog target gene Gli1 / Hedgehog signaling (Gli1 gene expression) / Gli1 gene expression relative to CM only / Hedgehog signaling (Gli1 gene expression) compared to the control: NIH3T3 cells; for gene expression of the Hedgehog target gene Gli1 / Hedgehog signaling (Gli1 gene expression): FIG. 7; for Hedgehog signaling (Gli1 gene expression): in the absence of CM; for Hedgehog signaling (Gli1 gene expression) compared to the control: without CM
Method: The compounds described herein were tested on cell cultures to assess their effects on Hedgehog target genes PTCH and Gli1. Conditioned medium (CM) was collected from CAPAN-1 human pancreatic tumor cells grown to confluence in DMEM containing 10%0/fetal bovine serium (FBS) and contains Hh proteins that activate the Hh pathway in cells receiving the CM. After 7 days of incubation of confluent cells with the described medium, CM was collected, spun for 5 minutes at 1800 rpm to remove dead cells and debris, and then frozen at −80° C. For treating cells, CM was thawed and diluted 1:2 to 1:6 with DMEM containing 5% FBS. NIH3T3 cells, HepG2 and SUFU−/−MEF cells were cultured in 12-well plates with DMEM containing 10% FBS. The cells were then treated with DMEM containing 5% FBS or CM in the presence or absence of the compounds prepared in DMSO when they reach confluence. Quantitative RT-PCR was then performed according to the following approach. After 72 to 96 hours of the treatments, the cells were lysed and subjected to RNA extraction with RNease Plus Min kit (Qiagen). A portion of RNA from each well was subjected to Reverse Transcription (RT) using iScript Reverse Transcription Supermix (BioRad). QPCR was performed to test the expression of Hh target genes PTCH and Gli1 using IQ SYBR Green Supermix (BioRad).

[2] = system: connective tissue growth factor (CTGF); assay: TGFβ1 induced expression of CTGF in NIH3T3 cells (Q-RT-PCR); format: cell-based; conditions: 10 uM, recombinant human TGFβ1 at 20 ng/ml, 48 hours, FIG. 8
Method: NIH3T3 cells were treated with recombinant human TGFβ1 at 20 ng/ml in the absence or presence of compound 21 at 10 uM. After 48 hours, RNA was extracted and analyzed by Q-RT-PCR for the expression of connective tissue growth factor (CTGF), a tumorigenic gene.

[3] = 10 μM, in the presence of CM, FIG. 6, result in words

## C[C@]12CC[C@H]3[C@@H](CC=C4C[C@@H](O)CC[C@@]43C)[C@@H]1CC[C@@H]2[C@@](C)(O)CCc1cccnc1 [Oxy43, reference compound]
[1]
  gene expression of the Hedgehog target gene Gli1: greatly increased
  Hedgehog signaling (Gli1 gene expression): stimulated Hedgehog signaling

## C[C@]12CC[C@H](O)C[C@@H]1CC[C@@H]1[C@@H]2CC[C@@]2(C)[C@H]1CC[C@@H]2[C@](C)(O)CCc1ccc(F)cc1 [compound 6, (3S,5S,8R,9S,10S,13S,14S,17S)-17-((R)-4-(4-fluorophenyl)-2-hydroxybutan-2-yl)-10,13-dimethylhexadecahydro-1H-cyclopenta[a]phenanthren-3-ol]
[1]; 5 μM, in the presence of CM, FIG. 6, result in words
  Gli1 gene expression relative to CM only: greatly decreased
[1]; [3]
  Gli1 gene expression relative to CM only: greatly decreased
[1]; 10 μM, FIG. 6
  Hedgehog signaling (Gli1 gene expression) compared to the control: did not show this effect
[1]; comparison with compound 4 (C5-C6 double bond, C20 R-stereochemistry), FIG. 1
  inhibition of Gli1 expression vs. compound 4: increased
[1]; comparison with compound 18 (C20 S-stereochemistry, C5-C6 single bond), FIGS. 1 and 3
  inhibition of Gli1 expression vs. compound 18: increased

## C[C@]12CC[C@H]3[C@@H](CC=C4C[C@@H](O)CC[C@@]43C)[C@@H]1CC[C@@H]2[C@@](C)(O)CCc1ccc(F)cc1 [Oxy45, reference compound]
[1]; 5 μM, in the presence of conditioned medium (CM), FIG. 6
  Gli1 gene expression relative to CM only: more than 2 fold
[1]; 10 μM, in the presence of conditioned medium (CM), FIG. 6
  Gli1 gene expression relative to CM only: more than 2 fold
[1]; 10 μM, FIG. 6
  Hedgehog signaling (Gli1 gene expression) compared to the control: stimulated Hedgehog signaling

## C[C@]12CC[C@H]3[C@@H](CC=C4C[C@@H](O)CC[C@@]43C)[C@@H]1CC[C@@H]2[C@](C)(O)CCc1cccnc1 [compound 21, (3S,8S,9S,10R,13S,14S,17S)-17-((R)-2-hydroxy-4-(pyridin-3-yl)butan-2-yl)-10,13-dimethyl-2,3,4,7,8,9,10,11,12,13,14,15,16,17-tetradecahydro-1H-cyclopenta[a]phenanthren-3-ol]
[1]
  gene expression of the Hedgehog target gene Gli1: decreased
  Hedgehog signaling (Gli1 gene expression): did not
[2]
  TGFβ1 induced expression of CTGF: inhibited

## C[C@]12CC[C@H]3[C@@H](CC=C4C[C@@H](O)CC[C@@]43C)[C@@H]1CC[C@@H]2[C@](C)(O)CCc1ccc(F)cc1 [compound 4, (3S,8S,9S,10R,13S,14S,17S)-17-((R)-4-(4-fluorophenyl)-2-hydroxybutan-2-yl)-10,13-dimethyl-2,3,4,7,89,10,11,12,13,14,15,16,17-tetradecahydro-1H-cyclopenta[a]phenanthren-3-ol]
[1]; [3]
  Gli1 gene expression relative to CM only: greatly decreased
[1]; 10 μM, FIG. 6
  Hedgehog signaling (Gli1 gene expression) compared to the control: did not show this effect
